Tests used:
[1] = test system: duodenal peptic ulcer due to acetic acid; assay: Effect on peptic ulcer due to acetic acid (duodenal ulcer); format: in vivo, male rats; conditions: 100 mg/kg, oral, rats; for Ulcer coefficient: 3 times a day for 10 days from third day; for Rate of suppression of ulcer: 3 times a day for 10 days, versus control
Description: The inventors of the present invention, taking into account of these situations, added to the above-mentioned method of evaluation the effect of accelerating the cure of the peptic ulcer by orally administering the present compound and a commercialized anti-peptic ulcer medicine, respectively to rats to which duodenal peptic ulcer due to acetic acid (refer to Okabe, 1971) considered to be most closely resembling to human peptic ulcer has been artificially formed.
Following the method of Okabe et al (refer to Amer. J. Dig. Dis., 16, […]), 6 groups (15 animals per group) of male rats weighing 240 to 260 g were subjected to laparotomy under ether anesthesia in which a metal circular frame was placed on the serosa at a distance of 5 to 7 mm from the duodenal pylorus, 0.06 ml of glacial acetic acid was poured into the frame. After 30 seconds, the liquid containing the acetic acid was removed and then the frame was removed. The test compound suspended in an aqueous 0.5% solution of carboxymethylcellulose was orally administered to the rat 3 times a day from the third day of the operation for consecutive 10 days. To the control group, only the solution of carboxymethylcellulose was administered. After the administration was over, the rats were sacrificed with ether, and their duodenum was removed to observe under a microscope for anatomy. The length and width of the thus-formed ulcer were measured and their product (expressed with mm^2) was recorded as the ulcer coefficient.
By the way, the above-mentioned experimental model has been highly evaluated internationally because the thus-formed ulcer is scarcely curable in nature and the histopathological change of the ulcer lesion closely resembles to that of human chronic ulcer as compared to the method of cautery-ulcer (refer to Skoryna, 1958) and the method of crumping-cortisone (refer to Umehara, 1965).

[2] = test system: peptic ulcer due to pyloric ligation; assay: Effect on peptic ulcer due to pyloric ligation; format: in vivo, male rats; conditions: 100 mg/kg, intraperitoneal, rats; for Ulcer coefficient: just after pyloric ligation, 15 hours; for Rate of suppression of ulcer: pyloric ligation, versus control
Experimental: Six groups (10 animals per group) of male rats weighing 180 to 200 g were subjected to ligation of their pyloruses under ether-anesthesia after fasting for 48 hours according to the method of Shay et al. (refer to Gastroenterology, 5, page 43 (1945)).
Just after subjecting to ligation, each of the present compound suspended in an aqueous physiological saline solution was intraperitoneally administered to each rat, the control being injected with an aqueous physiological saline solution. Then, after 15 hours of fasting without taking water, the rats were sacrificed with ether and their stomachs were removed to examine under a microscope for anatomy. The length and width of the thus-formed ulcer in the stomach were determined and expressed by the product (mm^2), and the total sum of the products was represented as the ulcer coefficient.

[3] = Acute toxicity test, oral; design: species or system Female ICR-mice; conditions: mouse, in vivo, mortality observed for a week, Litchfield-Wilcoxon
Experimental: Female ICR-mice of body weight of 20 to 24 g, 5 weeks after birth were used.
Eight animal per group were kept in a transparent polycage at room temperature of 23°±1° C., and RH of 60 to 70%.
After minutely pulverizing each one of the present compounds, the pulverized compound was suspended in an aqueous 5% sodium carboxymethylcellulose solution containing 20% of Tween-80. The aqueous suspension was forcibly orally administered by a metal stomach tube, the dose rate having been adjusted by changing the concentration of the present compound in the aqueous suspension.
In some mortal cases, the rat's spontaneous movement was lowered with the reduction of general tension and the rats died as they were.

peptic ulcer = conditions: cited from earlier work

Row | Structure (SMILES) | Ulcer coefficient [1] | Rate of suppression of ulcer [1] | Ulcer coefficient [2] | Rate of suppression of ulcer [2] | LD50 at 168 h [3] | Side effects (peptic ulcer) | Accelerating effect on ulcer-curing (peptic ulcer; commercialized medicine, background)
1 | COc1cc(C2NC(=O)CCS2)cc(OC)c1OC (centres unmarked) [Compound 1, 2-(3,4,5-trimethoxyphenyl)-1,3-perhydrothiazine-4-one] | 2.5 mm^2 | 67.1% | 9.3 mm^2 | 74.9 | 5400 mg/kg | – | –
2 | COc1ccc(C2NC(=O)CCS2)cc1OC (centres unmarked) [Compound 2, 2-(3,4-dimethoxyphenyl)-1,3-perhydrothiazine-4-one] | 2.0 mm^2 | 73.6% | 1.9 mm^2 | 94.3 | > 8000 mg/kg | – | –
3 | COc1ccccc1C1NC(=O)CCS1 (centres unmarked) [Compound 3, 2-(2-methoxyphenyl)-1,3-perhydrothiazine-4-one] | 1.5 mm^2 | 80.2% | 2.4 mm^2 | 93.5 | > 8000 mg/kg | – | –
4 | COc1ccc(C2NC(=O)CCS2)cc1 (centres unmarked) [Compound 4, 2-(4-methoxyphenyl)-1,3-perhydrothiazine-4-one] | 1.3 mm^2 | 82.8% | 2.0 mm^2 | 94.5 | > 8000 mg/kg | – | –
5 | CC(C)=CCCC(C)=CCCC(C)=CCCC(=O)OCC=C(C)CCC=C(C)C [Positive control, 3,7dimethyl-2,6-octadienyl-5,9,13-trimethyl-4,8,12-tetradecatrienoate, reference compound] | 6.1 mm^2 | 20.0% | 32.5 mm^2 | 12.2 | – | – | –
6 | CC1(C)[C@@H](OC(=O)CCC(=O)O)CC[C@]2(C)[C@H]3C(=O)C=C4[C@@H]5C[C@@](C)(C(=O)O)CC[C@]5(C)CC[C@@]4(C)[C@]3(C)CC[C@@H]12 [carbenoxolone] | – | – | – | – | – | aldosterone-like side effects to cause hypertension and weakening of muscular function | excellent accelerating effect on the ulcer-curing
